The results in this text go back to the Kinase Knowledgebase extract (Sharma et al. 2016).

Bounds are passed on as bounds.

One experiment has as its target PIK3CA (human) (UniProt P42336). As to the kind of experiment: Assessment of PIK3CA Kinase Activity.
The target of the next experiment is PIK3CG (human) (UniProt P48736). The experiment is described as follows: Assessment of PIK3CG Kinase Activity.
For another experiment, the target named is PIK3CD (Human) (UniProt O00329). As to the kind of experiment: Assessment of PIK3CD Kinase Activity.
The next experiment concerns the target PIK3CB (Human) (UniProt P42338). The experiment is described as follows: Assessment of PIK3CB Kinase Activity.

Chain of PIK3CG (human) (P48736 whole entry, looked up): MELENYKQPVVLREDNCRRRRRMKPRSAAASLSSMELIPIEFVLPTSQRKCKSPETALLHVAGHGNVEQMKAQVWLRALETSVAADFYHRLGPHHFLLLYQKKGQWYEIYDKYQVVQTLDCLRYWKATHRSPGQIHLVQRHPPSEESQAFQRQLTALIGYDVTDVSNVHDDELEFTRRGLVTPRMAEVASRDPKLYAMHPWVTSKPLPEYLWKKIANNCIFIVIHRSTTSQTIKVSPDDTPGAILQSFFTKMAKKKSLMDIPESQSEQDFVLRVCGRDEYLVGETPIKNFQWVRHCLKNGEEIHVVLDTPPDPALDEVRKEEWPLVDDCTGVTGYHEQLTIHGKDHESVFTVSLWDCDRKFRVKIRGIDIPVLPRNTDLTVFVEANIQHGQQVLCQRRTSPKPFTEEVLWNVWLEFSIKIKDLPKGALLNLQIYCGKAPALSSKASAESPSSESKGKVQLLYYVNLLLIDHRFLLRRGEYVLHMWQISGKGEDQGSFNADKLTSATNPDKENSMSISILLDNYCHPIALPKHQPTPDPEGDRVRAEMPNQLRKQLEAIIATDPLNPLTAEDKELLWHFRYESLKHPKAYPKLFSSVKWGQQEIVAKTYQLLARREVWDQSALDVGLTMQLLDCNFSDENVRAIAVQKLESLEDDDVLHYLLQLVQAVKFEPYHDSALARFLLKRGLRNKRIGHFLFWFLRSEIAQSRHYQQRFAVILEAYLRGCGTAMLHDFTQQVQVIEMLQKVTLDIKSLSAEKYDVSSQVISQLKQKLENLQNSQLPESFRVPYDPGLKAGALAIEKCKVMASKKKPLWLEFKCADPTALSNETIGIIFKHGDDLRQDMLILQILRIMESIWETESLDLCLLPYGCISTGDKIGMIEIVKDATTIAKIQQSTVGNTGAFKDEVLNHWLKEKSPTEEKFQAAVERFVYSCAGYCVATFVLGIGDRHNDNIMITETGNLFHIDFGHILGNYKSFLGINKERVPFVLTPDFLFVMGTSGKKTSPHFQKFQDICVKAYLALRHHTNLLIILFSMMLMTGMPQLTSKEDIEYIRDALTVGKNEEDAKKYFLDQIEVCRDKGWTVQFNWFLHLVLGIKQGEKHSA
Chain of PIK3CA (human) (P42336 whole entry, looked up): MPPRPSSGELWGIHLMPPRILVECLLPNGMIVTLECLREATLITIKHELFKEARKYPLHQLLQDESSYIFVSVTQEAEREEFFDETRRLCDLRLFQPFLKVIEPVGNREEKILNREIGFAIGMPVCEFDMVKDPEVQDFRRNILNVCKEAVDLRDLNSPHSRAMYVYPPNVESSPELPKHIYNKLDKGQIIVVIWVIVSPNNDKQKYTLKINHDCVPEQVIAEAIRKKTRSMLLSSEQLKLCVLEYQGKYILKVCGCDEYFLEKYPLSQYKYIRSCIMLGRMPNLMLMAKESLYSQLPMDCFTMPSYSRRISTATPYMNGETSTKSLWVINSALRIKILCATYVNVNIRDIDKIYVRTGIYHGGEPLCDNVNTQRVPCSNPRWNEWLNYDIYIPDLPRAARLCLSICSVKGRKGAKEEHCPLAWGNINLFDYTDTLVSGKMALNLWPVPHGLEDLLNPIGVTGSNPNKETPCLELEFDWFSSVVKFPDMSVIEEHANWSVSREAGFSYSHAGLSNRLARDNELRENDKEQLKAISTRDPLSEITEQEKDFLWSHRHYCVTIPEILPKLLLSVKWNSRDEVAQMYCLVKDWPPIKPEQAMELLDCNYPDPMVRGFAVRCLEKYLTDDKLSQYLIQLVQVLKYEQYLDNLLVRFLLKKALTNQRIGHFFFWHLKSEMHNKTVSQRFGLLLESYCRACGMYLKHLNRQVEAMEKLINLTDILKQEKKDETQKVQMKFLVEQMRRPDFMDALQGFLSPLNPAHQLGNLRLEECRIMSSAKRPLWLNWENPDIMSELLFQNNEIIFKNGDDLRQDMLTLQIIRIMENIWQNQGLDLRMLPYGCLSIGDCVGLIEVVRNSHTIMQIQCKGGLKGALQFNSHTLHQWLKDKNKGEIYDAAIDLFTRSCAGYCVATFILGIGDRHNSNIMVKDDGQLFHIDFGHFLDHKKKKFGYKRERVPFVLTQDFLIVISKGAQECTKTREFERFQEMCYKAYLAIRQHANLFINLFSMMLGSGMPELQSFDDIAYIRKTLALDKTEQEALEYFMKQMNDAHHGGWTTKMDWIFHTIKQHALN
Chain of PIK3CD (Human) (O00329 whole entry, looked up): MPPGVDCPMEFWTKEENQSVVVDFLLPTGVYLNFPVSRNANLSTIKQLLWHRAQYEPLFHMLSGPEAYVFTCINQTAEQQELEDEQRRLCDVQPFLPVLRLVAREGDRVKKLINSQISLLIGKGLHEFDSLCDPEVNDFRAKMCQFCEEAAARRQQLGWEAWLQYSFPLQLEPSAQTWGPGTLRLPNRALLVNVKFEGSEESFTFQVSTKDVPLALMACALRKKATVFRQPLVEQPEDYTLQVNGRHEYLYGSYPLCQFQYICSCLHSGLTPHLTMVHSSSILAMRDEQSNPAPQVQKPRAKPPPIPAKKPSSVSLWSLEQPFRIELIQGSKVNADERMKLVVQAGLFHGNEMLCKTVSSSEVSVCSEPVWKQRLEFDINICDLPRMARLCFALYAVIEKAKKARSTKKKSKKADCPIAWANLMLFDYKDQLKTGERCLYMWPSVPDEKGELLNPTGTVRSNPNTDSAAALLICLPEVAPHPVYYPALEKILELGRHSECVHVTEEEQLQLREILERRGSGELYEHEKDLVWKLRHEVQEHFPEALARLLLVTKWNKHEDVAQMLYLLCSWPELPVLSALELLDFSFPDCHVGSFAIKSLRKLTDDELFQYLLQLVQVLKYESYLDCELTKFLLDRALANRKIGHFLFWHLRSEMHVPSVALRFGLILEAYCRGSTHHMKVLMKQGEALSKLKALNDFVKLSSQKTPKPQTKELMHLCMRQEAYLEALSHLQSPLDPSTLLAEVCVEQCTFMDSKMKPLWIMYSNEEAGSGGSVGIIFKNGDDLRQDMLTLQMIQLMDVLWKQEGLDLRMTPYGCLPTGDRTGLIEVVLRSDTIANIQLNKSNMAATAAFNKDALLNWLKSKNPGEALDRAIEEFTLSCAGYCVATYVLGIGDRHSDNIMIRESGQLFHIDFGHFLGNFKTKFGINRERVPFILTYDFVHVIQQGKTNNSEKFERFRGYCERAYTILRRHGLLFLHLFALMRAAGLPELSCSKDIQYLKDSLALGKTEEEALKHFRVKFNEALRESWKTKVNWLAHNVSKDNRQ
Chain of PIK3CB (Human) (P42338 whole entry, looked up): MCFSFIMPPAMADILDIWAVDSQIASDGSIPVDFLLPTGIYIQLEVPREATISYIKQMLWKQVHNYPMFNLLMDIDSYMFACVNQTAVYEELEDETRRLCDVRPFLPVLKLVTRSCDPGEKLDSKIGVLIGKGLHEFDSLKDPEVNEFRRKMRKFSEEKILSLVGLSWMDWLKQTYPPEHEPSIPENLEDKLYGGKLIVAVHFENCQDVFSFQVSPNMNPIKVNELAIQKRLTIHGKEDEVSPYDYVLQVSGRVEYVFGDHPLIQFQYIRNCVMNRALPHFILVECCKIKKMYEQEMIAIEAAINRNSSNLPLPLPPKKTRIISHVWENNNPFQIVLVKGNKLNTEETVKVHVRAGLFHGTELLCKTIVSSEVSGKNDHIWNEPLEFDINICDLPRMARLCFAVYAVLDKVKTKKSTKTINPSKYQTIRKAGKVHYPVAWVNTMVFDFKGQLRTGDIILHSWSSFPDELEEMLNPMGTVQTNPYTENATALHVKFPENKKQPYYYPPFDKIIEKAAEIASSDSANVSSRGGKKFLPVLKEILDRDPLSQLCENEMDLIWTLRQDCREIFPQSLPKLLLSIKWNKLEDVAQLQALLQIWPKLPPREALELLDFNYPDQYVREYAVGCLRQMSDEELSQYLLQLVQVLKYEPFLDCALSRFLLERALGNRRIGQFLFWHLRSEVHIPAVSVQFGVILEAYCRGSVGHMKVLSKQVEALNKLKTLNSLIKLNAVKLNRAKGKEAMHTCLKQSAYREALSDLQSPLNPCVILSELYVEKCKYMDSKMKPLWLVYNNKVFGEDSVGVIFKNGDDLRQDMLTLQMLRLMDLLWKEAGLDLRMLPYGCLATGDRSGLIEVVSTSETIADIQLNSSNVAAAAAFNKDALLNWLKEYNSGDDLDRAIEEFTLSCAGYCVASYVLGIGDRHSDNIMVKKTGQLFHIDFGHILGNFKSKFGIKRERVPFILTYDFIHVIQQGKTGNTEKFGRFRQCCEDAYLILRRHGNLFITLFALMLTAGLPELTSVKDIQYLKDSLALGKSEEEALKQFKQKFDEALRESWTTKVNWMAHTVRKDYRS

For orientation: IC50 means the concentration needed to halve the response being measured. On PIK3CA (human), `CNc1nc(C)c2cc(-c3ccc(O)c(Cl)c3)ccc2n1` displayed a half-maximal inhibitory concentration (IC50) of 500 to 1000 nM.
The same measure, in the same setting: the result for `CNc1nc(C)c2cc(-c3ccc(O)c(F)c3)ccc2n1` reads 500 to 1000 nM.
The compound `Nc1ncc2cc(-c3cccc(O)c3)ccc2n1` gave an IC50 at PIK3CA (human) of 100 to 500 nM.
For the compound `Cc1nc(Nc2cccnc2)nc2ccc(-c3cccc(O)c3)cc12`, the IC50 against PIK3CG (human), against PIK3CA (human) and against PIK3CD (Human) was not above 100 nM throughout.
`CNc1nc(C)c2cc(-c3ccc(F)c(O)c3)ccc2n1` came in with an IC50 against PIK3CA (human) of 500 to 1000 nM.
`Cc1nc(N)nc2ccc(-c3cnc4[nH]ccc4c3)cc12`: at PIK3CA (human), the concentration for half-maximal inhibition (IC50) was in the range of 500 to 1000 nM.
With `CNc1nc(C)c2cc(-c3cnc4[nH]ccc4c3)ccc2n1`, the half-maximal inhibitory concentration (IC50) was 100 to 500 nM against PIK3CG (human) and 500 to 1000 nM at PIK3CA (human).
In the case of `CNc1nc(C)c2cc(-c3cccc(O)c3)ccc2n1`, the half-maximal inhibitory concentration (IC50) on PIK3CG (human) was not above 100 nM; against PIK3CA (human), 100 to 500 nM; against PIK3CD (Human) it was 100 to 500 nM.
Regarding `CNc1nc(C)c2cc(-c3cc(O)cc(F)c3)ccc2n1`, the half-inhibitory concentration (IC50) was 500 to 1000 nM on PIK3CB (Human), not above 100 nM on PIK3CG (human), 100 to 500 nM against PIK3CA (human) and not above 100 nM on PIK3CD (Human).
On to `Cc1nc(Nc2cccnc2)nc2ccc(-c3cc(O)cc(F)c3)cc12`, for which the half-maximal inhibitory concentration (IC50) on PIK3CG (human), against PIK3CA (human) and at PIK3CD (Human) was not above 100 nM throughout.
For `Cc1nc(N)nc2ccc(-c3cccc(O)c3)cc12`, the IC50 on PIK3CB (Human) was 100 to 500 nM; at PIK3CG (human) it was not above 100 nM; against PIK3CA (human), 100 to 500 nM; on PIK3CD (Human), not above 100 nM.
